The values that follow come from patent US20150218212A1, “FLUORINATED EPOXYKETONE-BASED TETRAPEPTIDE COMPOUNDS AND USES THEREOF AS PROTEASOME INHIBITORS” (FLUORINOV PHARMA INC., priority 2012, published 2015).

Common to all, as to format: in vivo, NOD/SCID mice
For assay [1], the target named is T1, proteasome Trypsin-like (T-L) activity (Mus musculus, UniProt P70195+Q9R1P1).
T1 construct: RBCs were lysed with assay lysis buffer and incubated on ice for 30 minutes; from tissue; host or cells: red blood cells of NOD/SCID mice
The assay is described as follows: Pharmacodynamic proteasome activity in murine red blood cells, T-L. As to conditions: iv, mice, 2 mg/kg i.v., time 0, read-out: Trypsin-like (T-L) mean residual activity relative to vehicle treated controls. The procedure:
(§1) Cells were harvested by centrifugation at 1,200 rpm at room temperature. Cell pellets were washed with PBS (phosphate buffered saline) and lysed with assay lysis buffer (50 mM HEPES (N-2-hydroxyethylpiperazine-N′-2-ethanesulfonic acid), pH 7.5; 150 mM NaCl; 1% Triton X-100; 2 mM ATP). Cell lysates were incubated on ice for 30 minutes, mixed by vortex every 5 minutes, and then centrifuged at 12,000 g for 10 minutes. The supernatant was transferred to a 96-well plate. For each assay, 10 μg of total protein were incubated for 1 hour at 37° C. with increasing concentrations (1 nM to 10 μM) of test compound diluted in assay buffer (50 mM tris-HCl (tris(hydroxymethyl)aminomethane-HCl), pH 7.5; 150 mM NaCl). DMSO alone was used as a control in every assay plate. After incubation, a specific fluorogenic proteasome substrate was added to each assay reaction at a final concentration of 40 μM in a total volume of 100 μL. N-Succinyl-Leu-Leu-Val-Tyr-7-amino-4-methylcoumarin (Suc-Leu-Leu-Val-Tyr-AMC) was used for measuring chymotrypsin-like (CT-L) activity, t-butoxycarbonyl-Leu-Arg-Arg-7-amino-4-methylcoumarin (Boc-Leu-Arg-Arg-AMC) for trypsin-like (T-L) activity, and benzyloxycarbonyl-L-leucyl-L-leucyl-L-glutamyl-7-amino-4-methylcoumarin (Z-Leu-Leu-Glu-AMC) for caspase-like (C-L) activity. The excitation wavelength was set at 360 nm and the fluorescence emission wavelength of AMC was detected at 460 nm. The fluorescence of free AMC released during the enzymatic reaction was measured with a SpectraMax M5 fluorescent spectrophotometric plate reader (Molecular Devices, Sunnyvale, Calif.). AMC release rate was measured at 37° C. in a kinetic mode, recording every 5 minutes for 30 minutes. Experiments were performed in triplicate and repeated at least twice.
(§2) All mouse experiments were performed in accordance with approval from the Ontario Cancer Institute institutional animal review board. Five- to six-week-old male non-obese diabetic/severe combined immunodeficient (NOD/SCID) mice were grouped randomly (n=3 mice per group). Mice were administered vehicle (5% DMSO, 20% Cremophor) or compounds of Formula I at different doses either intravenously or by oral gavage, and venous blood samples (20-50 μL) were collected from each mouse over 24 hours. Blood samples were mixed with heparin (APP Pharmaceuticals; Schaumburg, Ill.) in 0.5 mL tubes in accordance with the manufacturer's instructions. After centrifugal separation at 3,000 g for 10 minutes, red blood cells (RBCs) in the bottom layer were transferred into a new tube and stored at −70° C. until use. RBCs were lysed with assay lysis buffer and incubated on ice for 30 minutes, mixing by vortex every 5 minutes, and then centrifuged at 12,000 g for 10 minutes. The supernatant was transferred to a 96-well plate and proteasome activity was measured as described above for tumor cell lysates.
(§3) Proteasome subunit activity (Chymotrypsin-like, Trypsin-like, Caspase-like, CT-L, T-L, C-L, respectively) were monitored over the course of 24 hrs following […] administration of representative compounds of Formula I. NOD/SCID mice were treated with compounds of Formula I (2 mg/kg by iv administration) or vehicle control and carfilzomib for up to 24 hours, as described above. Table 9 summarizes the data on pharmacodynamic activity of representative compounds of Formula I following a dose of 2 mg/kg intravenous (i.v) administration to mice. Data are presented as mean residual activity (SEM) relative to vehicle treated controls.

Assay [2] has as its target T2, proteasome Caspase-like (C-L) activity (Mus musculus, UniProt P70195+Q60692).
T2 construct: RBCs were lysed with assay lysis buffer and incubated on ice for 30 minutes; from tissue; host or cells: red blood cells of NOD/SCID mice
The assay is described as follows: Pharmacodynamic proteasome activity in murine red blood cells, C-L. Particulars: iv, mice, 2 mg/kg i.v., time 0, read-out: Caspase-like (C-L) mean residual activity relative to vehicle treated controls. The procedure: as §1, §2, §3

For assay [3], the target named is T3, proteasome Chymotrypsin-like (CT-L) activity (Mus musculus, UniProt O09061+O55234).
T3 construct: RBCs were lysed with assay lysis buffer and incubated on ice for 30 minutes; from tissue; host or cells: red blood cells of NOD/SCID mice
In words: Pharmacodynamic proteasome activity in murine red blood cells, CT-L. As to conditions: iv, mice, 2 mg/kg i.v. The procedure:
as §1, §2, §3

Where two headings read alike, the source gives them in different places.

On to `CC(C)C[C@H](NC(=O)[C@H](CCc1ccccc1)NC(=O)CN1CCOCC1)C(=O)N[C@@H](Cc1ccccc1)C(=O)N[C@@H](CC(C)C)C(=O)[C@@]1(C)CO1` [Carfilzomib, carfilzomib, reference compound], for which the remaining activity at 2 mg/kg in assay [1] is 100%; in assay [2], 100%; in assay [3] (30 min, read-out: Chymotrypsin-like (CT-L) mean residual activity relative to vehicle treated controls), 48%; in assay [3] (24 hrs, read-out: Chymotrypsin-like (CT-L) mean residual activity relative to vehicle treated controls), 46%; in assay [3] (time 0, read-out: Chymotrypsin-like (CT-L) mean residual activity relative to vehicle treated controls) it was 100%.
